81 molecules from the METLIN SMRT retention time set (Domingo-Almenara et al. 2019) can be followed below.

This data set can be described thus: gradient 5% acetonitrile 3 min, to 50% in 2 min, to 85% in 15 min, held 3 min, 100 µL/min. To be noted: column: Zorbax Extend-C18 2.1 x 50 mm; eluents: water / acetonitrile, 0.1% formic acid. In short, it runs like this:
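Pure standards were analyzed in mixtures of ~100 molecules using HPLC coupled to a quadrupole time-of-flight mass spectrometer, in both positive and negative ionization mode. Separation used a Zorbax Extend-C18 column (2.1 × 50 mm, 1.8 μm) at 100 μL/min, with water and acetonitrile each containing 0.1% formic acid. Dead and dwell volumes were 40 μL and 900 μL, and data were collected over 3 months. Retention time was read from computationally picked adduct peaks, each inspected manually.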
For `Cc1ccc(-c2ccc(N3CCCC(C(=O)NCc4ccco4)C3)nn2)cc1C` (stereo unspecified), the RP-LC retention time was found to be 719 s.

In turn, `CC(=O)N1CCN(c2nc(-c3ccccc3)c3cc(Br)ccc3n2)CC1` had an RP-LC retention time of 1010 s. For the molecule `Cc1ccc(N2CCC(NC(=O)CC3CCCC3)C2=O)cc1` (stereo unspecified), the RP-LC retention time amounted to 839 s.

Molecule `CN1C(=O)c2cccn2CC1CNC(=O)NCCc1ccccc1` (stereo unspecified) returned an RP-LC retention time of 661 s.

`CCCn1c(-c2cccc(C(=O)NC(C)c3ccccc3)c2)nc2cccnc21` (stereo unspecified) returned an RP-LC retention time of 824 s. Regarding `O=C(c1ccsc1)N1CCCN(c2cc(-c3ccccc3)[nH]n2)CC1`, the RP-LC retention time came out at 741 s. With `CC1CCN(S(=O)(=O)c2ccc(-c3nnc(C4CCC4)o3)o2)CC1` the figure was 1030 s; with `CC(C)N1CCn2c(nc3cc(C(=O)NCc4ccc5c(c4)OCO5)ccc32)C1=O`, 680 s; with `CCCN(CCC)CCc1c[nH]c2ccc(C(N)=O)cc12`, 640 s. Then `CCOCCCNC(=O)C1CCCN(S(=O)(=O)c2ccc(OC)c(C)c2)C1` (stereo unspecified), with 813 s; and `COCCNC(=O)C1CCN(c2nccc(C)n2)CC1`, with 561 s. Then `Cc1ccc(C)c(NC(=O)Cn2c(=O)nc(N3CCC(C)CC3)c3ccccc32)c1`, with 880 s; and `O=C(NCC(c1ccco1)N1CCN(c2ccccc2)CC1)Oc1ccccc1` (stereo unspecified), with 625 s.

The molecule `Cc1nc(NCCNC(=O)c2cccs2)cc(N2CCCC2)n1` yielded an RP-LC retention time of 560 s. Then `CCCN(C(=O)CC)c1nc(-c2cccc(Cl)c2)cs1`, with 1320 s; and `O=S(=O)(c1cc(-c2cc(C(F)(F)F)on2)cs1)N1CCN(c2ccc(Cl)cc2)CC1`, with 1290 s. `Cc1ccc(CNC(=O)C2(C)CN(S(C)(=O)=O)CC(=O)N2Cc2ccccc2Cl)cc1` (stereo unspecified) displayed an RP-LC retention time of 901 s.

As to `Cc1ccc2ncn3c(=O)n(CC(=O)Nc4ccc(C(C)C)cc4)nc3c2c1`, the RP-LC retention time was determined as 754 s. Then `CCCNC(=O)Cn1ccc2ccc(-c3nnc(C)o3)cc21`, with 678 s; and `CC(=O)N1CCC2(CC1)CC(CC(=O)NCc1ccc(C)o1)CCO2` (stereo unspecified), with 625 s; and `Cc1ccc(S(=O)(=O)CC(=O)Nc2nc(-c3ccc4c(c3)OCCO4)cs2)cc1`, with 935 s.

The molecule `O=C(CN1C(=O)C2CCCCN2c2ccc(S(=O)(=O)N3CCCC3)cc21)NCc1cccnc1` (stereo unspecified) displayed an RP-LC retention time of 646 s. Then `COc1ccc2c(C)c(CCC(=O)N[C@H](CC(C)C)C(=O)O)c(=O)oc2c1C`, with 781 s. With `CC(C)c1ccc(NC(=O)c2cc3sc(Cl)cc3n2C)cc1` the figure was 1300 s; with `CCCn1ccc2oc(C)c(C(=O)NCc3ccc(CC)cc3)c2c1=O`, 1170 s; with `O=S(=O)(c1ccccc1Cl)N1CC(F)(F)C[C@H]1COc1cccnc1`, 731 s. Then `CCOc1ccc(C(C)NC(=O)C2CCCN(c3cnc4nccnc4c3)C2)cc1` (stereo unspecified), with 712 s; and `COCC1CN(S(=O)(=O)c2ccc(F)c(C)c2)CC12CCNCC2` (stereo unspecified), with 636 s; and `CCOC(=O)Cc1ccc(NC(=O)N2CCC3(CC2)NC(=O)c2ccccc2O3)cc1`, with 761 s. As to `Cc1cc(NC(=O)CSc2nc3ccccc3o2)sn1`, the RP-LC retention time was determined as 726 s. Turning to `CCC(=O)N(C)CCc1noc(COc2cccc(C(F)(F)F)c2)n1`, the RP-LC retention time amounted to 842 s. The molecule `CC1=C(c2ccc(F)cc2)S(=O)(=O)N=C1N1CCC(C(=O)NC2CCCC2)CC1` returned an RP-LC retention time of 798 s.

In turn, `CCOC(=O)CCC(=O)Nc1nnc(-c2sc(C)nc2C)o1` came in with an RP-LC retention time of 621 s. With `Cc1ccc(CN2C(=O)NC3(CCN(C(=O)COc4ccc(C)cc4)CC3)C2=O)cc1` the figure was 876 s. Then `COc1cc(-n2c(=S)[nH]c3ccccc3c2=O)c(Cl)cc1Cl`, with 923 s. Then `Cc1cccc(-c2noc(C3CCCN3S(=O)(=O)c3ccc4c(c3)CCC4)n2)c1` (stereo unspecified), with 1270 s; and `O=C(Cn1c(=O)n(-c2ccccc2)c2ncccc21)N1CCN(c2ccccn2)CC1`, with 596 s. `COc1nn(C)cc1C(=O)Nc1ccc(Cl)c(Cl)c1` had an RP-LC retention time of 864 s. With `O=C(Cc1csc(-c2ccccc2F)n1)NCCc1c[nH]c2ccc(F)cc12` the figure was 908 s; with `Cc1ccc(NC(=O)C2(Cc3cccnc3)CCCCC(=O)N2)cc1` (stereo unspecified), 611 s. Then `Cc1noc(C)c1CNC(=O)Cc1ccccc1Cl`, with 725 s; and `Cc1nn(C)c(C)c1S(=O)(=O)NCCc1noc(-c2cccnc2)n1`, with 643 s. Regarding `CCc1ccc(NC(=O)N2CCN(Cc3ccc4nccnc4c3)CC2)cc1`, the RP-LC retention time came to 626 s. `Cc1cccc(NC(=O)C2CCCN(S(=O)(=O)c3cn(C(C)C)cn3)C2)c1C` (stereo unspecified) registered an RP-LC retention time of 878 s. Then `O=C(NC1CCCCC1)C1CCN(C(=O)c2cc(-c3ccncc3)n[nH]2)CC1`, with 590 s. Consider `COc1ccc(NC(=O)c2nnc(COCC(=O)NCCc3c[nH]c4ccc(Cl)cc34)s2)cc1`, for which the RP-LC retention time was 894 s. For `CCc1ccc(CNC(=O)C2CCN(c3ncccc3S(=O)(=O)N3CCCCC3)CC2)cc1`, the RP-LC retention time was found to be 1040 s. With `Cc1ccn2cc(-c3ccc(NC(=O)CCC4CCCC4)cc3)nc2n1` the figure was 722 s; with `Cc1cc(-c2nnc(-c3ccc(F)cc3)o2)c(C)n1CC(=O)NCc1ccc2c(c1)OCO2`, 916 s; with `Cc1cc(Cl)ccc1NS(=O)(=O)c1ccc(-c2c(C)noc2C)cc1`, 1030 s. `CCOc1cc(=O)n2c(c1C(=O)Nc1cc(Cl)c(OC)cc1OC)CCCC2` yielded an RP-LC retention time of 758 s. `CCOc1ccccc1NC(=O)N1CCN(CCNC(=O)c2ccc3c(c2)OCO3)CC1` had an RP-LC retention time of 581 s. In turn, `O=C(Nc1c(C(=O)Nc2ccccc2F)oc2ccccc12)c1ccc(Br)o1` displayed an RP-LC retention time of 1190 s. In the case of `CC1(C)Cc2cccc(OCC(=O)N3CCN(Cc4nnnn4-c4ccccc4)CC3)c2O1`, the RP-LC retention time was 811 s. In turn, `CCOc1ccc(NC(=O)c2cc(C)n3nc(C)cc3n2)cc1` returned an RP-LC retention time of 976 s. With `CSc1cccc(-n2ccc(=O)c(-c3nc(-c4ccccc4)no3)n2)c1`, the RP-LC retention time worked out at 971 s. With `Cc1nnc2ccc(NC(=O)Nc3cccc(F)c3)cn12` the figure was 677 s; with `CCc1nncn1C1CCN(S(=O)(=O)c2cc(C)ccc2C)CC1`, 752 s.

`O=C(Cn1cnc2c(sc3nc(-c4ccccc4)ccc32)c1=O)NCc1ccco1` returned an RP-LC retention time of 887 s. Then `CCOc1c(C(=O)OC)sc2ccc(NC(=O)c3[nH]nc4c3CCc3ccccc3-4)cc12`, with 1140 s. In the case of `COc1ccc(CNC(=O)NCc2cccnc2OC)cc1`, the RP-LC retention time is 691 s. Molecule `Cc1nc(CNC(=O)[C@H]2CCCN2S(=O)(=O)c2ccc(Br)cc2)cs1` had an RP-LC retention time of 794 s. As to `C=CCN1C(=O)COc2ccc(-c3nc(NC(=O)C(CC)CC)sc3C)cc21`, the RP-LC retention time stood at 1050 s. Consider `O=C(NCCN1CCN(c2ccc(Cl)cc2)CC1)C(=O)Nc1cc(F)ccc1F`, for which the RP-LC retention time came out at 613 s. In turn, `CCN1C(=O)c2cccnc2Sc2cc(NC(=O)c3cccnc3)ccc21` yielded an RP-LC retention time of 637 s. In turn, `CCc1ccc(S(=O)(=O)N2CCC3(CC2)C(=O)N(CC)c2ccccc23)cc1` displayed an RP-LC retention time of 1140 s. Then `CC1CCC[C@H](O)CCCCCc2cc(O)cc(O)c2C(=O)O1` (stereo partly specified), with 862 s; and `CCCn1ccc2oc(C)c(C(=O)NCc3cccc(Br)c3)c2c1=O`, with 1130 s. Consider `CCCN1CCN(c2ccc(NC(=O)C(C)(C)C)c(C(=O)O)c2)CC1`, for which the RP-LC retention time amounted to 611 s. Take `Cc1cc(C)nc(N2CCC(NC(=O)c3cccc4nccnc34)CC2)n1`: the RP-LC retention time worked out at 650 s. With `CSc1ccc(CNC(=O)CN2CCc3[nH]c4c(C)cc(C)cc4c(=O)c3C2)cc1` the figure was 904 s; with `COc1ccccc1N1CCN(Cc2nc(-c3ccc(N4CCOCC4)nc3)no2)CC1`, 694 s; with `CCCC(NC(=O)Cc1ccccc1F)C(=O)Nc1nc2ccccc2[nH]1` (stereo unspecified), 694 s. With `CC1=CC(=C2C=CC(=O)C=C2)C=C(C)N1C`, the RP-LC retention time worked out at 620 s.

Molecule `COc1cccc(N2CCN(CC(O)c3ccc(C)cc3)CC2)c1` (stereo unspecified) displayed an RP-LC retention time of 677 s.

`CN1c2ccccc2C(=O)NC12CCN(C(=O)NCCc1ccccc1)CC2` returned an RP-LC retention time of 728 s.

The molecule `NC[C@@H]1O[C@H](c2ccccc2)Cc2c1ccc(O)c2O` registered an RP-LC retention time of 662 s. With `O=C(C1COc2ccccc2O1)N(CCc1cccs1)Cc1ccco1` (stereo unspecified) the figure was 1020 s; with `CCOC(=O)N1CCN(C(=O)Cn2c(-c3ccccn3)nc3ccccc32)CC1`, 643 s. Molecule `CCOc1ccc(OCCNC(=O)NC2CCCCC2)cc1` yielded an RP-LC retention time of 800 s. Then `CCOCCCNC(=O)C(C)Sc1ccc(=O)n(-c2ccc(C)c(Cl)c2)n1` (stereo unspecified), with 797 s.
